Converted amounts (≈) assume the structure as drawn.

Series [1] relates to viruses. As to conditions: literature ref. 3; cited from earlier work.
For series [2] the following is noted: literature ref. 3-7; cited from earlier work.
In series [3] the test system is viruses. As to conditions: literature ref. 3; cited from earlier work. The source holds these as a separate data set.
Series [4] relates to Human cytomegalovirus (HCMV) strain AD169. The series can be described thus: HCMV plaque reduction (cytopathic effect) assay, strain AD169 in MRC-5 cells. As to conditions: Human betaherpesvirus 5, AD169/MRC5, read-out: IC50 (median inhibitory concentration). The series is classed as cell-based. Here is the method: (§1) Vero and MRC-5 cells were obtained from ATCC. Human foreskin fibroblast (HFF) and Vero cells were routinely grown in minimal essential medium (MEM) with Earle salts [MEM(E)]supplemented with 10% fetal bovine serum (FBS). MRC-5 cells were grown in Basal Medium Eagle (BME) with 10% FBS and 0.035% NaHCO3. Cells were passaged according to conventional procedures.^33 Human cytomegalovirus (HCMV) strains AD169 and Towne were obtained from the ATCC. Herpes simplex virus type i and type 2 (HSV1 and HSV2) are commercially available.
Two different plaque reduction assays were employed to determine the antiviral efficacy of the test compounds in culture. The first assay used MRC-5 cells and the AD169 strain of HCMV. The second assay used HFF cells and the Towne strain of HCMV. In experiments using MRC-5 cells the growth medium was removed from monolayer cultures in 24-well tissue culture plates. One mL of virus (AD169), diluted in test medium (Dulbecco's modified Eagle medium (DMEM), 2% FBS, 0.1% NaHCO3 and 50 ug gentamicin/mL) was used. The 24-well plates were centrifuged at 2200 rpm for 30 minutes at room temperature to allow the virus to adsorb. Medium was then aspirated from each well of the plates. The individual dilutions of each compound (prepared in test medium) were placed in each test well (0.8 mL/well, 4 wells/dilution). All plates were incubated at 37° C. in a moist atmosphere of 5% CO2. When virus plaques had formed in control cells (HCMV infected, untreated) the medium was aspirated from all wells, and the cells were stained by adding 0.3 mL of 0.2% crystal violet in 10% buffered formalin to each well. After 15 minutes, the stain was removed, cells were rinsed in tap water until the water was clear, and the plates were inverted and dried at room temperature. Plaques were counted by use of a dissecting microscope.
(§2) Ganciclovir was used as an anti-HCMV standard in all HCMV assays.
(§3) I. A series of guanine analogs containing an alkyl side chain in place of sugar moiety were evaluated for their ability to inhibit HCMV production in acute infection assays in culture and for cytotoxicity in HFF and MRC-5 cells.
(§4) III. Table 1 lists the median inhibitory concentration (IC50) for all compounds tested against HCMV strains AD169 or Towne. In addition this table lists the median toxic concentrations of these compounds (TC50) as determined by visual observation of uninfected cells treated with various concentrations of drug.
Plaque reduction assays were employed to determine the antiviral efficacy of the test compounds in culture. MRC-5 cells and the AD169 strain of FICMV were used. Growth medium was removed from monolayer cultures in 24-well tissue culture plates. One ml of virus, diluted in test medium (Dulbecco's modified Eagle medium (DMEM), 2% FBS, 0.1% NaHCO3 and 50 ug gentamicin/ml). After infection and subsequent removal of the media, individual dilutions of each compound (prepared in test medium) were placed in each test well (0.8 ml/well, 4 wells/dilution) and plates incubated at 37° C. in a moist atmosphere of 5% CO2. When virus plaques have formed in control cells (HCMV infected, untreated) the medium was aspirated from all wells, and the cells stained by adding 0.3 ml of 0.2% crystal violate in 10% buffered formalin to each well. Plaques were counted by use of a dissecting microscope. Ganciclovir was used as an anti-HCMV standard in all HCMV assays.

Series [5] deals with Herpes simplex virus type 2 (HSV2). The series can be described thus: Inhibition of HSV2 in Vero cells (CPE assay). The series is classed as cell-based. As to conditions: Human alphaherpesvirus 2, CPE scored 40 to 48 h post-infection. Here is the method:
as §1
(§5) Vero cells were plated at 4×10^4 cells/well in a 96-well microtitre dish in 0.1 mL of MEM(E) with 10% FBS 24 h before infection with virus. The cells were incubated at 37° C. in a 5% CO2 atmosphere. The medium was then removed and 50 μL of media containing 30 to 50 PFU of virus was allowed to adsorb to the cells for 10 minutes at 37° C. The virus containing medium was then removed and the cells were rinsed 3 times with fresh media. A final 100 μL aliquot of fresh medium, containing the various dilutions of test compounds, was then added to each well and the plates were then incubated at 37° C. Plaques were observed 24 hr post-infection and the degree of cytopathic effect scored 40 to 48 h post-infection. Acyclovir was used as a standard in all ttSV assays.
(§6) I. The same compounds used in Example 31 were also assayed for their ability to inhibit herpes simplex viruses type 1 and type 2 in acute infection assays in culture.
(§7) III. The toxic effect of these compounds on actively dividing Vero cells is reported. For all values listed as >x, x is the highest concentration tested for the respective compound.
(§8) Vero cells were plated in a 96-well microtitre dish in 0.1 ml of MEM(E) with 10% FBS 24 hours before infection with virus. The medium will then be removed and 50 ul of media containing 30 to 50 PFU of virus were allowed to adsorb to the cells for 10 minutes at 37° C. The virus-containing medium will then be removed and the cells rinsed 3 times with fresh media. A final 100 ul aliquot of fresh medium, containing the various dilutions of test compounds, were added to each well and the plates incubated at 37° C. Plaques were observed 24 hours post-infection and the degree of cytopathic effect scored 40 to 48 hours-post infection. Acyclovir was used as a standard in all HSV assays.

The nature of series [6]: Cytotoxicity (inhibition of cell growth) in actively dividing Vero cells, CellTiter 96 assay. Type of series: cell-based. As to conditions: african green monkey, 4 day incubation, read-out: Cytotoxicity (TC50). Here is the method: as §1
(§9) Stationary uninfected HFF and MRC-5 cells were evaluated for visual cytotoxicity on the scoring basis of 0 (no visual cytotoxicity at 20 fold magnification) to 4 (cell sheet nearly destroyed). Cytotoxicity as measured by inhibition of cell growth was performed in Vero cells using a CellTiter 96™ Aqueous Non-Radioactivity Cell Proliferation Assay (Promega). Cytotoxicity assays were performed using a 4 day incubation of test compound with Vero cells plated at 500 cells/well. Each assay was performed in quadruplicate. The resultant data are averaged, graphed and then used to calculate the TC50 (median toxic concentration) for the compound tested.
III. […] For all values listed as >x, x is the highest concentration tested for the respective compound.

Series [7] can be described thus: Visual cytotoxicity in stationary uninfected MRC-5 cells. As to conditions: human, AD169/MRC5 system, visual observation of stationary uninfected MRC5 cells, read-out: TC50 (median toxic concentration). The series is classed as cell-based. As for the experimental part: as §9, §3, §4
Series [8] deals with Herpes simplex virus type 1 (HSV1). The series can be described thus: Inhibition of HSV1 in Vero cells (CPE assay). The series is classed as cell-based. As to conditions: Human alphaherpesvirus 1, CPE scored 40 to 48 h post-infection. Here is the method: as §1, §5, §6, §7, §8
Series [9] is described as follows: Visual cytotoxicity in stationary uninfected HFF cells. Type of series: cell-based. As to conditions: human; Towne/HFF system; visual observation of stationary uninfected HFF cells; read-out: TC50 (median toxic concentration). As for the experimental part:
as §1, §9, §3, §4

Series [10] relates to Human cytomegalovirus (HCMV) strain Towne. The series can be described thus: HCMV plaque reduction (cytopathic effect) assay, strain Towne in HFF cells. As to conditions: Human betaherpesvirus 5, HFF, read-out: IC50 (median inhibitory concentration). Type of series: cell-based. Here is the method: as §1
A similar set of experiments designed to monitor HCMV plaque reduction were performed with monolayer cultures of HFF and the Towne strain of HCMV using procedures similar to those reported by Turk et al.^34 Diploid HFF cells were plated 24 hr before use at approximately 1×10^5 cells/plate. These monolayer cultures were infected with 100 plaque forming units (PFU) of virus. The compounds to be assayed were dissolved in culture medium. Viral adsorption was allowed to proceed for 1 hr at which time virus containing medium was removed and replaced with medium containing the various dilutions of the test compounds. Plaques were counted using crystal violet as described above.
as §2, §3, §4

The subject of series [11] is DNA viruses. As to conditions: literature refs. 14-17; cited from earlier work.

For the compound `Nc1nc2c(sc(=O)n2[C@@H]2O[C@H](CO)[C@@H](O)[C@H]2O)c(=O)[nH]1` [7-thia-8-oxoguanosine], the “antiviral activity in vitro” value in [1] is “virtually inactive”. For the same compound, the immunomodulatory activity result in [2] is “demonstrated immunomodulatory activity”. Besides, the “antiviral activity in the host animal” value in series [3] is “broad spectrum of antiviral activity”.
On to `CCCCCCn1c(=O)sc2c(=O)[nH]c(N)nc21` [Compound R1132-30], for which the IC50 in series [4] is 0.45 µg/mL (≈ 1.68 µM); in series [5] it was > 1.2 µg/mL; in [8], > 1.2 µg/mL. In addition, the CC50 at 96 h in [6] is > 1 µg/mL. In [7], the CC50 worked out at 1.2 µg/mL (≈ 4.47 µM).
As to `CCCCCn1c(=O)sc2c(=O)[nH]c(N)nc21` [Compound R1132-36], the IC50 was 0.2 µg/mL (≈ 0.786 µM) in [4], > 5.1 µg/mL in series [5], 17 µg/mL (≈ 66.8 µM) in series [10] and > 5.1 µg/mL in series [8]. Also, the CC50 at 96 h in series [6] is > 5 µg/mL. Further, the CC50 stood at 100 µg/mL (≈ 393 µM) in [9] and 4 µg/mL (≈ 15.7 µM) in series [7].
For `CC(C)=CCn1c(=O)sc2c(=O)[nH]c(N)nc21` [Compound R1132-72, 5-Amino-3-(3-methylbut-2-ene-1-yl)thiazo lo[4,5-d]-pyrimidine-2,7(3H,6H)-dione], the IC50 is 4 µg/mL (≈ 15.9 µM) in series [4], 5.6 µg/mL (≈ 22.2 µM) in series [5], 1.7 µg/mL (≈ 6.74 µM) in series [10] and 5.6 µg/mL (≈ 22.2 µM) in [8]. For the same compound, the CC50 at 96 h in series [6] came out at 20 µg/mL (≈ 79.3 µM). The CC50 in series [9] is 100 µg/mL (≈ 396 µM); in series [7] it was > 100 µg/mL.
Consider `CCCCC(CCCC)n1c(=O)sc2c(=O)[nH]c(N)nc21` [Compound R1132-73, 5-Amino-3-(nonan-5-yl)thiazolo[4,5-d]-pyrimidine-2,7(3H, 6H)-dione], for which the IC50 is 9.4 µg/mL (≈ 30.3 µM) in series [4], > 2.2 µg/mL in series [5], 4.7 µg/mL (≈ 15.1 µM) in [10] and > 2.2 µg/mL in series [8]. Further, the CC50 at 96 h in series [6] was > 2.5 µg/mL. The CC50 in series [9] was found to be 11.1 µg/mL (≈ 35.8 µM); in series [7], 178 µg/mL (≈ 573 µM).
For the compound `CCC=CCn1c(=O)sc2c(=O)[nH]c(N)nc21` [Compound R1132-74, 5-Amino-3-(pent-2-ene-1-yl)thiazolo[4,5-d]-pyrimidine-2,7(3H,6H)-dione], the IC50 in [4] is < 1 µg/mL; in series [5], < 0.27 µg/mL; in series [10], 0.14 µg/mL (≈ 0.555 µM); in series [8] it was 0.53 µg/mL (≈ 2.1 µM). In [6], the CC50 at 96 h is > 20 µg/mL. Besides, the CC50 in [9] and in series [7] was > 100 µg/mL each time.
For the compound `C=CCCCn1c(=O)sc2c(=O)[nH]c(N)nc21` [Compound R1132-75, 5-Amino-3-(pent-4-ene-1-yl)thiazolo[4,5-d]-pyrimidine-2,7(3H, 6H)-dione], the IC50 in series [4] was determined as 9.4 µg/mL (≈ 37.3 µM); in series [5] it was 8.1 µg/mL (≈ 32.1 µM); in series [10] it was 12 µg/mL (≈ 47.6 µM); in series [8], 16.2 µg/mL (≈ 64.4 µM). In addition, the CC50 at 96 h in [6] was found to be 45 µg/mL (≈ 178 µM). Moreover, the CC50 in [9] was > 100 µg/mL; in series [7], 68 µg/mL (≈ 270 µM).
For the compound `CCC(CC)n1c(=O)sc2c(=O)[nH]c(N)nc21` [Compound R1132-76, 5-Amino-3-(pentan-3-yl)thiazolo[4,5-d]-pyrimidine-2,7(3H, 6 H)-dione], the IC50 in series [4] was > 100 µg/mL; in [5] it was 21.7 µg/mL (≈ 85.3 µM); in series [8], > 21.7 µg/mL. The CC50 at 96 h in series [6] stood at 56 µg/mL (≈ 220 µM). In addition, the CC50 in [7] is 32 µg/mL (≈ 126 µM).
For the compound `CCCCCC(CCCCC)n1c(=O)sc2c(=O)[nH]c(N)nc21` [Compound R1132-77, 5-Amino-3-(undecan-6-yl)thiazolo[4,5-d]-pyrimidine-2,7(3H,6H)-dione], the IC50 in series [4] was determined as 12 µg/mL (≈ 35.5 µM). For the same compound, the CC50 in series [7] was determined as 52 µg/mL (≈ 154 µM).
Regarding `O=c1[nH]c(=O)n([C@@H]2O[C@H](CO)[C@@H](O)[C@@H]2F)cc1I` [FIAU, 1-(2-deoxy-2-fiuoro-β-D-arabinofuranosyl)-5-iodouracil], in series [11], the “activity against several DNA viruses” value is “potent agents against several DNA viruses”.
As for `Cc1cn([C@@H]2O[C@H](CO)[C@@H](O)[C@@H]2F)c(=O)[nH]c1=O` [FMAU, 1-(2-deoxy-2-fiuoro-β-D-arabinofuranosyl)thymine], in series [11], the “activity against several DNA viruses” value is “potent agents against several DNA viruses”.
With `Nc1nc2c(ncn2COC(CO)CO)c(=O)[nH]1` [Ganciclovir, 9-(1-hydroxymethyl-2-hydroxyethoxymethyl)guanine, reference compound], the IC50 in [4] was 2.1 µg/mL (≈ 8.23 µM); in series [10], 2.7 µg/mL (≈ 10.6 µM). Also, the values for the CC50 in [9] and in [7] were > 100 µg/mL and > 900 µg/mL, respectively.
Turning to `Nc1nc2c(ncn2COCCO)c(=O)[nH]1` [acyclovir, 9-(2-hydroxyethoxymethyl)guanine, reference compound], the IC50 in series [5] and in [8] was 0.2 µg/mL (≈ 0.888 µM) in each case. In addition, the CC50 at 96 h in [6] was > 100 µg/mL.

Source of the values: patent US5446045A, “Antiviral guanine analogs” (priority 1993, dated 1995).
